Measurements taken from article PMC2993763 (Journal of natural products, 2010).
Several values for one entry are separate records, joined by “and”; a condition that tells them apart may be missing. Identical values can stand only once.

Experiments:
[1] = test system: HT-29 human colon cancer cell line; assay: Cytotoxicity assay; format: cell-based; details: HT-29 cells, three days incubation, SRB stain
[2] = cited from earlier work
[3] = test system: P-388 lymphocytic leukemia; details: administered both ip and iv; cited from earlier work

## COC(=O)[C@H]1[C@@H](O)[C@@]2(O)c3c(OC)cc(O[C@@H]4O[C@@H]([C@H](O)CO)CO[C@@H]4OC)cc3O[C@@]2(c2ccc(OC)cc2)[C@@H]1c1ccccc1 [Compound 1, 2‴-epi-silvestrol]
[1]
  ED50, cytotoxicity HT-29: 2300 nM and 2290 nM

## COC(=O)[C@H]1[C@@H](O)[C@@]2(O)c3c(OC)cc(O[C@@H]4O[C@@H]([C@@H](O)CO)CO[C@@H]4OC)cc3O[C@@]2(c2ccc(OC)cc2)[C@@H]1c1ccccc1 [Compound 2, 2‴,5‴-diepi-silvestrol]
[1]
  ED50, cytotoxicity HT-29: 1100 nM and 1070 nM

## COC(=O)[C@H]1[C@@H](O)[C@@]2(O)c3c(OC)cc(O[C@@H]4O[C@@H]([C@H](O)CO)CO[C@H]4OC)cc3O[C@@]2(c2ccc(OC)cc2)[C@@H]1c1ccccc1 [Compound 7, silvestrol]
[2]
  activity in the in vivo hollow fiber assay: active
[1]
  ED50, cytotoxicity HT-29: 0.7 nM
[3]
  activity in the P-388 lymphocytic leukemia test system in vivo: showed activity

## COC(=O)[C@H]1[C@@H](O)[C@@]2(O)c3c(OC)cc(O[C@@H]4O[C@@H]([C@@H](O)CO)CO[C@H]4OC)cc3O[C@@]2(c2ccc(OC)cc2)[C@@H]1c1ccccc1 [Compound 8, episilvestrol (5‴-epi-silvestrol)]
[1]
  ED50, cytotoxicity HT-29: 1 nM
